Laboratory results reported in ChEMBL document CHEMBL4622878, “Cytotoxic Activity of Germacrane-Type Sesquiterpene Lactones from Dimerostemma aspilioides” (J Nat Prod, 2020).
pIC50: −log10 of the molar value. Active and inactive are the calls of the source. No cut-off for these calls is given here.

Columns and labels:
K562-Lucena 1 [1] = experiment: Induction of cell cycle arrest in human K562-Lucena 1 cells assessed as early apoptotic cells at 5.1 uM after 48 hrs by propidium iodide staining based flow cytometric analysis (reference value: 7.57%); format: functional
K562-Lucena 1 [2] = experiment: Induction of morphological changes in human K562-Lucena 1 cells assessed as appearance of apoptotic bodies at 5.1 uM incubated for 48 hrs by DAPI staining based fluorescence microscopy; format: functional, cell-based
K562 [3] = experiment: Induction of apoptosis in human K562 cells assessed as necrotic cells at 2.3 uM after 48 hrs by Annexin V-FITC/PI double staining based flow cytometry analysis (reference value: 0.13%); format: functional
K562-Lucena 1 [4] = experiment: Induction of cell cycle arrest in human K562-Lucena 1 cells at 5.1 uM after 48 hrs by propidium iodide staining based flow cytometric analysis; format: functional
K562 [5] = experiment: Induction of cell cycle arrest in human K562 cells assessed as accumulation of cells at G2/M phase at 2.3 uM after 24 hrs by propidium iodide staining based flow cytometric analysis (reference value: 0.4 +/- 0.2%); format: functional
K562-Lucena 1 [6] = experiment: Induction of cell cycle arrest in human K562-Lucena 1 cells assessed as necrotic cells at 5.1 uM after 24 hrs by propidium iodide staining based flow cytometric analysis (reference value: 1.03%); format: functional
K562 [7] = experiment: Induction of cell cycle arrest in human K562 cells at 2.3 uM after 48 hrs by propidium iodide staining based flow cytometric analysis; format: functional
K562 [8] = experiment: Induction of apoptosis in human K562 cells assessed as late apoptotic cells at 2.3 uM after 24 hrs by Annexin V-FITC/PI double staining based flow cytometry analysis (reference value: 0.79%); format: functional
K562-Lucena 1 [9] = experiment: Induction of cell cycle arrest in human K562-Lucena 1 cells assessed as decrease in accumulation of cells at G1 phase at 5.1 uM after 24 hrs by propidium iodide staining based flow cytometric analysis; format: functional
K562 [10] = experiment: Induction of apoptosis in human K562 cells assessed as early apoptotic cells at 2.3 uM after 24 hrs by Annexin V-FITC/PI double staining based flow cytometry analysis (reference value: 2.76%); format: functional
K562-Lucena 1 [11] = experiment: Induction of cell cycle arrest in human K562-Lucena 1 cells assessed as early apoptotic cells at 5.1 uM after 24 hrs by propidium iodide staining based flow cytometric analysis (reference value: 7.79%); format: functional
K562 [12] = experiment: Induction of apoptosis in human K562 cells assessed as necrotic cells at 2.3 uM after 24 hrs by Annexin V-FITC/PI double staining based flow cytometry analysis (reference value: 0.085%); format: functional
K562 [13] = experiment: Induction of apoptosis in human K562 cells assessed as early apoptotic cells at 2.3 uM after 48 hrs by Annexin V-FITC/PI double staining based flow cytometry analysis (reference value: 1.67%); format: functional
K562-Lucena 1 [14] = experiment: Induction of cell cycle arrest in human K562-Lucena 1 cells assessed as viable cells at 5.1 uM after 48 hrs by propidium iodide staining based flow cytometric analysis (reference value: 87.1%); format: functional; conditions: K562-Lucena 1, 48 h, read-out: Activity
K562-Lucena 1 [15] = experiment: Induction of cell cycle arrest in human K562-Lucena 1 cells assessed as late apoptotic cells at 5.1 uM after 48 hrs by propidium iodide staining based flow cytometric analysis (reference value: 3.23%); format: functional
CCRF-CEM = experiment: Cytotoxicity against human CCRF-CEM cells after 48 hrs by MTT assay; format: functional, cell-based
K562-Lucena 1 [16] = experiment: Induction of cell cycle arrest in human K562-Lucena 1 cells assessed as increase in hypodiploid cells at sub-G1 phase at 5.1 uM after 48 hrs by propidium iodide staining based flow cytometric analysis; format: functional
K562-Lucena 1 [17] = experiment: Induction of morphological changes in human K562-Lucena 1 cells assessed as appearance of condensed chromatin at 5.1 uM incubated for 48 hrs by DAPI staining based fluorescence microscopy; format: functional, cell-based
K562 [18] = experiment: Induction of cell cycle arrest in human K562 cells assessed as decrease in accumulation of cells at G1 phase at 2.3 uM after 24 hrs by propidium iodide staining based flow cytometric analysis; format: functional
K562-Lucena 1 [19] = experiment: Cytotoxicity against human K562-Lucena 1 cells after 48 hrs by MTT assay; format: functional, cell-based; conditions: K562-Lucena 1, 48 h
PBMC = experiment: Cytotoxicity against PBMC (unknown origin) after 48 hrs by MTT assay; format: cell-based
K562-Lucena 1 [20] = experiment: Induction of cell cycle arrest in human K562-Lucena 1 cells assessed as accumulation of cells at G2/M phase at 5.1 uM after 24 hrs by propidium iodide staining based flow cytometric analysis (reference value: 3.3 +/- 0.1%); format: functional
K562 [21] = experiment: Cytotoxicity against human K562 cells after 48 hrs by MTT assay; format: functional, cell-based; conditions: K562, 48 h
K562 [22] = experiment: Induction of DNA fragmentation in human K562 cells at 2.3 uM incubated for 48 hrs by DAPI staining based fluorescence microscopy; format: functional, cell-based
K562 [23] = experiment: Induction of morphological changes in human K562 cells assessed as appearance of condensed chromatin at 2.3 uM incubated for 48 hrs by DAPI staining based fluorescence microscopy; format: functional, cell-based
K562 [24] = experiment: Induction of apoptosis in human K562 cells assessed as late apoptotic cells at 2.3 uM after 48 hrs by Annexin V-FITC/PI double staining based flow cytometry analysis (reference value: 0.41%); format: functional
K562-Lucena 1 [25] = experiment: Induction of cell cycle arrest in human K562-Lucena 1 cells assessed as late apoptotic cells at 5.1 uM after 24 hrs by propidium iodide staining based flow cytometric analysis (reference value: 3.15%); format: functional
K562 [26] = experiment: Induction of apoptosis in human K562 cells assessed as viable cells at 2.3 uM after 48 hrs by Annexin V-FITC/PI double staining based flow cytometry analysis (Rvb =97.8%); format: functional; conditions: K562, 48 h, read-out: Activity
K562-Lucena 1 [27] = experiment: Induction of cell cycle arrest in human K562-Lucena 1 cells assessed as necrotic cells at 5.1 uM after 48 hrs by propidium iodide staining based flow cytometric analysis (reference value: 2.15%); format: functional
ADR5000 cell line = experiment: Cytotoxicity against human CEM/ADR5000 cells after 48 hrs by MTT assay; format: functional, cell-based; conditions: ADR5000, 48 h
K562-Lucena 1 [28] = experiment: Induction of DNA fragmentation in human K562-Lucena 1 cells at 5.1 uM incubated for 48 hrs by DAPI staining based fluorescence microscopy; format: functional, cell-based
K562 [29] = experiment: Induction of morphological changes in human K562 cells assessed as appearance of apoptotic bodies at 2.3 uM incubated for 48 hrs by DAPI staining based fluorescence microscopy; format: functional, cell-based
K562-Lucena 1 [30] = experiment: Induction of cell cycle arrest in human K562-Lucena 1 cells assessed as viable cells at 5.1 uM after 24 hrs by propidium iodide staining based flow cytometric analysis (reference value: 88%); format: functional; conditions: K562-Lucena 1, 24 h, read-out: Activity
K562 [31] = experiment: Induction of apoptosis in human K562 cells assessed as viable cells at 2.3 uM after 24 hrs by Annexin V-FITC/PI double staining based flow cytometry analysis (Rvb =96.4%); format: functional; conditions: K562, 24 h, read-out: Activity
K562 [32] = experiment: Induction of cell cycle arrest in human K562 cells assessed as decrease in accumulation of cells at S phase at 2.3 uM after 24 hrs by propidium iodide staining based flow cytometric analysis; format: functional
K562 [33] = experiment: Induction of cell cycle arrest in human K562 cells assessed as increase in hypodiploid cells at sub-G1 phase at 2.3 uM after 48 hrs by propidium iodide staining based flow cytometric analysis; format: functional

## C=C(C)C(=O)O[C@H]1C/C(CO)=C/CC[C@@]2(C)O[C@H]2[C@H]2OC(=O)C(=C)[C@@H]21
K562-Lucena 1 [1]
  Activity: 31.4%
K562-Lucena 1 [2]
  Activity: Active
K562 [3]
  Activity: 0.56%
K562-Lucena 1 [4]
  Activity: inactive
K562 [5]
  Activity: 15.1%
K562-Lucena 1 [6]
  Activity: 1.38%
K562 [7]
  Activity: inactive
K562 [8]
  Activity: 0.64%
K562-Lucena 1 [9]
  Activity: Active
K562 [10]
  Activity: 2.26%
K562-Lucena 1 [11]
  Activity: 14.7%
K562 [12]
  Activity: 0.42%
K562 [13]
  Activity: 30.6%
K562-Lucena 1 [14]
  viability at 5.1 µM: 54.5%
K562-Lucena 1 [15]
  Activity: 10.8%
CCRF-CEM
  pIC50: 6.38
K562-Lucena 1 [16]
  Activity: Active
K562-Lucena 1 [17]
  Activity: Active
K562 [18]
  Activity: inactive
K562-Lucena 1 [19]
  pIC50: 5.29
PBMC
  pIC50: 4.10
K562-Lucena 1 [20]
  Activity: 23.2%
K562 [21]
  pIC50: 5.64
K562 [22]
  Activity: Active
K562 [23]
  Activity: Active
K562 [24]
  Activity: 2.38%
K562-Lucena 1 [25]
  Activity: 3.46%
K562 [26]
  viability at 2.3 µM: 66.4%
K562-Lucena 1 [27]
  Activity: 3.29%
ADR5000 cell line
  pIC50: 6.40
K562-Lucena 1 [28]
  Activity: Active
K562 [29]
  Activity: Active
K562-Lucena 1 [30]
  viability at 5.1 µM: 80.4%
K562 [31]
  viability at 2.3 µM: 96.7%
K562 [32]
  Activity: inactive
K562 [33]
  Activity: Active

## C=C(CO)C(=O)O[C@H]1C/C(COC(C)=O)=C/CC/C(C)=C/[C@H]2OC(=O)C(=C)[C@H]12
CCRF-CEM
  pIC50: 5.46
K562-Lucena 1 [19]
  pIC50: < 5.00
K562 [21]
  pIC50: < 5.00
ADR5000 cell line
  pIC50: 5.11

## C=C(CO)C(=O)O[C@H]1C[C@@]2(C=O)OC2CC/C(C)=C/[C@H]2OC(=O)C(=C)[C@H]12 (some centres undefined)
CCRF-CEM
  pIC50: 5.70
K562-Lucena 1 [19]
  pIC50: < 5.00
K562 [21]
  pIC50: 5.16
ADR5000 cell line
  pIC50: 5.34
